Assay results from patent US20230390234A1, “COMPOSITION INHIBITING MUSCLE LOSS OR PROMOTING MUSCLE FORMATION THROUGH SKIN-DERIVED EXOSOMES” (EX HEALTHCARE INC., priority 2021, published 2023).

How the values were obtained:
[1] = system: miRNA-26a; assay: Level of miRNA-26a in exosomes isolated from treated fibroblasts (real-time qPCR); type: cell-based, human
Protocol: After treating the subcultured passage 27 FB with betaine for 48 hours, the medium was collected and centrifuged at 3000×g for 30 minutes. After centrifugation, only the supernatant was recovered and transferred to Ultra-15 Centrifugal Filter Units (Amicon, MERCK, C7715) and centrifuged at 4000×g for 40 minutes. Only the supernatant was recovered, Total Exosome Isolation Reagent (Invitrogen, Cat No #4478539) was added at ½ the volume of the supernatant, and the mixture was allowed to react at 4° C. overnight. The next day, after centrifugation at 10000×g for 1 hour, the supernatant was removed by suction, and then a final exosome pellet was re-suspended in PBS. The exosomes obtained in the present example are hereinafter referred to as “fibroblast-derived exosomes”.
2×10^6 FB cells were inoculated onto a 75 T flask, cultured for 24 hours, and then treated with betaine (0.1, 1 and 10 mM). After the cells were additionally cultured for 48 hours, exosomes were isolated by the method of Example 1-2, and microRNA (hereinafter described as miRNA) was extracted from the exosomes isolated from the culture medium using an RNeasy plus mini kit (Qiagen, Germany) according to the manufacturer's protocol.
Real-time qPCR was performed with a tagman probe targeting mature RNA. The relative expression level of the intracellular target miRNA was normalized with the expression level of RNU48, which is used as a housekeeping gene during miRNA quantification, and then shown as a relative %. The relative expression of miRNA-26a in exosomes was normalized with the expression of […], which is used as a housekeeping gene during quantification of miRNA in fibroblast exosomes, and then shown as a relative %. For all real-time qPCR analyses, an Applied Biosystems 7500 (Applied Biosystems) apparatus was used.
The FB was treated with the material shown in the following Table 1 to isolate exosomes in the same manner as in Example 1-1, and the level of miRNA-26a was confirmed in the exosomes by the method in Example 1-4.
Thereafter, after fibroblasts (FB) were treated with the Camellia japonica flower extract for 48 hours, exosomes were isolated by the method in Example 1-2. Furthermore, the level of miR-26a was confirmed in exosomes isolated from the culture medium by the method in Example 1-4. As a result of the confirmation, it could be confirmed that the level of miRNA-26a was increased in the exosomes isolated from the FB treated with the Camellia flower extract at a concentration of 50 ppm compared to the control which was an untreated group (FIG. 9).

[2] = system: C2C12 cells; assay: Cytotoxicity of betaine, CCK-8 cell viability in myofibroblasts; type: cell-based, mouse; settings: betaine at different concentrations, 24 hours, CCK-8, FIG. 1B
Protocol: (§1) As human skin dermal cells, normal human dermal fibroblasts (NHDF, fibroblasts) isolated from adult samples were purchased from LONZA (Cat. CC-2511). As […], C2C12 cells, which are myoblasts isolated and cultured from C3H mice, were purchased from ATCC (CRL-1772).
(§2) Subcultured passage 27 human fibroblast HS68 (hereinafter referred to as FB) or C2C12 was inoculated onto a 96-well plate at a concentration of 1×10^4 cells/well and cultured in an incubator at 5% CO2 and 37° C. for 24 hours. After culturing, cells were treated with betaine at different concentrations and additionally cultured for 24 hours, and an untreated group was used as a control. After the cells were washed with PBS, the cells were additionally cultured with CCK-8 (DONGJIN, CK04-11) for 2 hours, and absorbance was measured at 450 nm using a microplate reader. From the measured results, relative cell viability according to the betaine treatment concentration was calculated by setting the value of the control to 100.

[3] = system: MyoD; assay: Myogenesis marker expression in differentiated C2C12 cells, qPCR; type: cell-based, mouse; settings: differentiated C2C12, 48 hours; betaine 0.1 mM or exosomes about 20 μg/ml, FIG. 5
Protocol: (§3) C2C12 cells were inoculated onto a 6-well plate at a concentration of 1.5×10^5 cells/well and cultured for 24 hours. Thereafter, the medium was exchanged with a medium supplemented with 2% horse serum, and the cells were further cultured for 72 hours to promote the differentiation of C2C12 cells. After the differentiation was completed, the cells were treated with betaine at 0.1 mM or fibroblast-derived exosomes (about 20 μg/ml) obtained in Example 1-2 and further cultured for 48 hours. Total RNA was extracted with an RNeasy plus mini kit and cDNA was synthesized with SuperScript™ III (Invitrogen, USA). Thereafter, qPCR was performed with a target gene taqman probe, and then analysis was performed.

[4] = system: MyoD; assay: Myogenesis marker protein level in differentiated C2C12 cells, western blotting; type: cell-based, mouse; settings: differentiated C2C12, 48 hours; betaine 0.1 or 0.5 mM or exosomes, FIG. 7
Protocol: (§4) C2C12 cells were inoculated onto a 6-well plate at a concentration of 5×10^5 cells/well and cultured for 24 hours. Thereafter, the medium was exchanged with a medium supplemented with 2% horse serum, and the cells were further cultured for 72 hours to promote the differentiation of C2C12 cells. After the differentiation was completed, the cells were treated with betaine (0.1 and 0.5 mM) or fibroblast-derived exosomes and further cultured for 48 hours. Thereafter, cells were lysed by adding a lysis buffer (1% NP40, 0.05 M Tris-HCl, pH 7.5, 0.15 M NaCl and 0.01 MgCl2) including a protease inhibitor to the C2C12 cells, and the concentration of proteins was measured by a […] (BCA) method. The quantified protein was separated with SDS-PAGE and transferred to a PVDF membrane, and the protein expression level of each muscle loss marker was confirmed with an antibody.

[5] = system: MURF1; assay: Muscle loss marker expression in differentiated C2C12 cells, qPCR; type: cell-based, mouse; settings: differentiated C2C12, 48 hours; betaine 0.1 mM or exosomes about 20 μg/ml, FIG. 4A
Protocol: as §3
(§5) C2C12 cells were inoculated onto a 6-well plate at a concentration of 1.5×10^5 cells/well and cultured for 24 hours. Thereafter, the medium was exchanged with a medium supplemented with 2% horse serum, and the cells were further cultured for 72 hours to promote the differentiation of C2C12 cells. After the differentiation was completed, the cells were treated with the Camellia japonica flower extract at 50 ppm or the exosomes (about 20 μg/ml) obtained in Example 4-1 and further cultured for 48 hours. Thereafter, the change in expression of the target gene was confirmed by qPCR by the method in Example 2-1.

[6] = system: myostatin; assay: as above; type: cell-based, mouse; settings: differentiated C2C12, 48 hours; betaine 0.1 mM or exosomes about 20 μg/ml, FIG. 4C
Protocol: as §3, §5

[7] = system: human fibroblast HS68 (FB); assay: Cytotoxicity of betaine, CCK-8 cell viability in fibroblasts; type: cell-based; settings: betaine at different concentrations, 24 hours, CCK-8, FIG. 1A
Protocol: as §1, §2

[8] = system: atrogin-1; assay: Muscle loss marker expression in differentiated C2C12 cells, qPCR; type: cell-based, mouse; settings: differentiated C2C12, 48 hours; betaine 0.1 mM or exosomes about 20 μg/ml, FIG. 4B
Protocol: as §3

[9] = system: atrogin-1; assay: Muscle loss marker protein level in differentiated C2C12 cells, western blotting; type: cell-based, mouse; settings: differentiated C2C12, 48 hours; betaine 0.1 or 0.5 mM or exosomes, FIG. 6
Protocol: as §4

[10] = system: MURF1; assay: as above; type: cell-based, mouse; settings: differentiated C2C12, 48 hours; betaine 0.1 or 0.5 mM or exosomes, FIG. 6
Protocol: as §4

[11] = system: myostatin; assay: as above; type: cell-based, mouse; settings: differentiated C2C12, 48 hours; betaine 0.1 or 0.5 mM or exosomes, FIG. 6
Protocol: as §4

In the case of `COc1ccc(-c2cc(=O)c3c(OC)c(OC)c(OC)c(OC)c3o2)cc1OC` [Nobiletin], the “miRNA-26a level in exosomes, fold change (vs. control)” value ([1]; FB treated with 30 uM) is reported as 1.447 fold.

Camelliaside A was tested, and the “miRNA-26a level in exosomes, fold change (vs. control)” value ([1]; FB treated with 1 ppm) was 1.956 fold.

With `O=c1c(O)c(-c2cc(O)c(O)c(O)c2)oc2cc(O)cc(O)c12` [Myricetin] the “miRNA-26a level in exosomes, fold change (vs. control)” value ([1]; FB treated with 25 uM) was 1.599 fold.

For `O=C1C[C@@H](c2ccc(O)cc2)Oc2cc(O)cc(O)c21` [Naringenin], the “miRNA-26a level in exosomes, fold change (vs. control)” value ([1]; FB treated with 10 uM) was 1.854 fold.

With Copper Tripeptide the “miRNA-26a level in exosomes, fold change (vs. control)” value ([1]; FB treated with 10 ppm) was 1.743 fold.

With L-carnosine the “miRNA-26a level in exosomes, fold change (vs. control)” value ([1]; FB treated with 5 ppm (0.0005%)) was 1.537 fold.

With Kojyl carboxy dipeptide-23 the “miRNA-26a level in exosomes, fold change (vs. control)” value ([1]; FB treated with 10 ppm) was 1.483 fold.

`C[N+](C)(C)CC(=O)O` [Betaine] was tested, and the “cell viability of C2C12” value [2] was “no change”, the “expression of MyoD (qPCR) vs. control” value [3] was “increased compared to the control, but was not at a significant level” and the “protein expression of MyoD (western blotting)” value [4] was “unchanged”. The “expression of MURF1 (qPCR) vs. control” value [5] was “slightly increased”, the “expression of myostatin (qPCR) vs. control” value [6] was “almost the same level” and the “cell viability of FB” value [7] was “no change”. For the same compound, the “miRNA-26a level in exosomes, fold change (vs. control)” value ([1]; FB treated with 1 mM) was 1.821 fold, the “level of miRNA-26a in exosomes vs. untreated control” value ([1]; FB treated with betaine 0.1, 1 and 10 mM, 48 hours, FIG. 3) was “increased” and the “expression of atrogin-1 (qPCR) vs. control” value [8] was “slightly increased”. The “protein expression of atrogin-1 (western blotting)” value [9] was “no change”, the “protein expression of MURF1 (western blotting)” value [10] was “no change” and the “protein expression of myostatin (western blotting)” value [11] was “no change”.
